Data from PubChem BioAssay AID248 (DTP/NCI, 2004).
Values joined by “and” are separate entries in the source; they are usually repeats but may differ in a detail not shown here. Equal values may be shown once. Inconclusive results and toxic doses are left out. Cut-off read from the data, not from the text of the source: active = T/C of 150% or more; inactive = T/C below 125%.

System: L1210 leukemia ip in BDF1 mice, survival T/C
Test: NCI In Vivo Anticancer Drug Screen. Data for tumor model L1210 Leukemia (intraperitoneal) in B6D2F1 (BDF1) mice
Details: endpoint: mean survival time, higher = longer survival
How it was run: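 Mice bearing the transplanted tumor received compound or vehicle. Survival of the treated group was divided by that of the vehicle-treated control group to give the ratio.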

[1] = dose: 100.0 mg/kg/injection, schedule: Q01DX009 (ip), vehicle: saline with Tween-80
[2] = dose: 100.0 mg/kg/injection, schedule: Q01DX001 (ip), vehicle: saline
[3] = dose: 200.0 mg/kg/injection, schedule: Q01DX001 (ip), vehicle: saline
[4] = dose: 400.0 mg/kg/injection, schedule: Q01DX001 (ip), vehicle: saline
[5] = dose: 50.0 mg/kg/injection, schedule: Q01DX001 (ip), vehicle: saline
[6] = dose: 100.0 mg/kg/injection, schedule: Q01DX009 (ip), vehicle: Klucel (hydroxypropylcellulose) (HPC)
[7] = dose: 100.0 mg/kg/injection, schedule: Q04DX002 (ip), vehicle: Klucel (hydroxypropylcellulose) (HPC)
[8] = dose: 200.0 mg/kg/injection, schedule: Q01DX009 (ip), vehicle: Klucel (hydroxypropylcellulose) (HPC)
[9] = dose: 400.0 mg/kg/injection, schedule: Q01DX009 (ip), vehicle: Klucel (hydroxypropylcellulose) (HPC)
[10] = dose: 100.0 mg/kg/injection, schedule: Q04DX003 (ip), vehicle: Klucel (hydroxypropylcellulose) (HPC)
[11] = dose: 200.0 mg/kg/injection, schedule: Q04DX003 (ip), vehicle: Klucel (hydroxypropylcellulose) (HPC)

Measured: T/C

CCOC(=O)NC1Cc2cc(C)cc(C)c21 (stereo not given)
inactive: dose: 10.0 mg/kg/injection, schedule: Q04DX002 (ip), vehicle: Klucel (hydroxypropylcellulose) (HPC) 120 % of control | dose: 20.0 mg/kg/injection, schedule: Q04DX002 (ip), vehicle: Klucel (hydroxypropylcellulose) (HPC) 100 % of control | dose: 40.0 mg/kg/injection, schedule: Q04DX002 (ip), vehicle: Klucel (hydroxypropylcellulose) (HPC) 103 % of control

C=CS(=O)(=O)CCc1ccccc1
inactive: dose: 100.0 mg/kg/injection, schedule: Q04DX002 (ip), vehicle: saline with Tween-80 115 % of control | dose: 200.0 mg/kg/injection, schedule: Q04DX002 (ip), vehicle: saline with Tween-80 102 % of control | dose: 400.0 mg/kg/injection, schedule: Q04DX002 (ip), vehicle: saline with Tween-80 91 % of control

COc1ccc2nc3cc(Cl)ccc3c(NCCNCCNCCNc3c4ccc(Cl)cc4nc4ccc(OC)cc34)c2c1
inactive: dose: 6.25 mg/kg/injection, schedule: Q01DX009 (ip), vehicle: saline with Tween-80 100 % of control | dose: 12.5 mg/kg/injection, schedule: Q01DX009 (ip), vehicle: saline with Tween-80 91 % of control | dose: 25.0 mg/kg/injection, schedule: Q01DX009 (ip), vehicle: saline with Tween-80 101 % of control | [1] 107 % of control

COc1ccc2c3c1OC1C(C)(O)C(O)CC4C(C2)N(C)CCC341 (stereo not given)
inactive: dose: 75.0 mg/kg/injection, schedule: Q01DX001 (ip), vehicle: saline 98 % of control | dose: 150.0 mg/kg/injection, schedule: Q01DX001 (ip), vehicle: saline 104 % of control | dose: 300.0 mg/kg/injection, schedule: Q01DX001 (ip), vehicle: saline 98 % of control

O=c1[nH]c(=O)n(C2OC(CO)C(O)C2O)c2ccccc12 (stereo not given)
inactive: [2] 102 % of control | [3] 93 % of control | [4] 93 % of control

O/N=C/c1ccc(Cl)cc1
inactive: [5] 97 % of control | [2] 100 % of control | [3] 94 % of control

S=C(Nc1ccccc1)Nc1cccc2ccccc12
inactive: [5] 97 % of control | [2] 103 % of control | [6] 105 % of control | [7] 87 % of control | [3] 97 % of control | [8] 105 % of control | dose: 200.0 mg/kg/injection, schedule: Q04DX002 (ip), vehicle: Klucel (hydroxypropylcellulose) (HPC) 87 % of control | [4] 94 % of control | [9] 112 % of control

COc1cc2c(cc1I)-c1c(cc(OC)c(OC)c1OC)CC[C@@H]2NC(C)=O
inactive: dose: 17.0 mg/kg/injection, schedule: Q01DX Z (ip), vehicle: carboxymethylcellulose (CMC) 102 % of control | dose: 26.0 mg/kg/injection, schedule: Q01DX Z (ip), vehicle: carboxymethylcellulose (CMC) 108 % of control | dose: 40.0 mg/kg/injection, schedule: Q01DX Z (ip), vehicle: carboxymethylcellulose (CMC) 119 % of control | dose: 49.0 mg/kg/injection, schedule: Q01DX Z (ip), vehicle: carboxymethylcellulose (CMC) 103 % of control | dose: 50.0 mg/kg/injection, schedule: Q01DX009 (ip), vehicle: saline sonified 108 % of control | dose: 60.0 mg/kg/injection, schedule: Q01DX Z (ip), vehicle: carboxymethylcellulose (CMC) 117 % of control | dose: 73.0 mg/kg/injection, schedule: Q01DX Z (ip), vehicle: carboxymethylcellulose (CMC) 103 % of control | dose: 90.0 mg/kg/injection, schedule: Q01DX Z (ip), vehicle: carboxymethylcellulose (CMC) 102 % of control | dose: 100.0 mg/kg/injection, schedule: Q01DX009 (ip), vehicle: saline sonified 106 % of control | [10] 99 % of control | dose: 110.0 mg/kg/injection, schedule: Q01DX Z (ip), vehicle: carboxymethylcellulose (CMC) 103 % of control | dose: 200.0 mg/kg/injection, schedule: Q01DX009 (ip), vehicle: saline sonified 119 % of control | [11] 99 % of control

COC1=C(OC)C(=O)C(SCCCc2ccccc2)=CC1=O
inactive: dose: 1.56 mg/kg/injection, schedule: Q01DX009 (im), vehicle: olive oil, sesame oil, peanut oil 101 % of control | dose: 3.13 mg/kg/injection, schedule: Q01DX009 (im), vehicle: olive oil, sesame oil, peanut oil 96 % of control | dose: 6.25 mg/kg/injection, schedule: Q01DX009 (im), vehicle: olive oil, sesame oil, peanut oil 98 % of control | dose: 12.5 mg/kg/injection, schedule: Q01DX009 (im), vehicle: olive oil, sesame oil, peanut oil 101 % of control | dose: 25.0 mg/kg/injection, schedule: Q01DX009 (im), vehicle: olive oil, sesame oil, peanut oil 98 % of control

Cn1cc(C(O)CN2CCCCC2)c2ccccc21 (stereo not given)
inactive: dose: 25.0 mg/kg/injection, schedule: Q04DX003 (ip), vehicle: saline with Tween-80 104 % of control | dose: 50.0 mg/kg/injection, schedule: Q04DX003 (ip), vehicle: saline with Tween-80 97 % of control

O=c1cc[nH]c2c(Cl)cccc12
inactive: dose: 50.0 mg/kg/injection, schedule: Q01DX001 (ip), vehicle: carboxymethylcellulose (CMC) 109 % of control | dose: 100.0 mg/kg/injection, schedule: Q01DX001 (ip), vehicle: carboxymethylcellulose (CMC) 109 % of control | dose: 200.0 mg/kg/injection, schedule: Q01DX001 (ip), vehicle: carboxymethylcellulose (CMC) 114 % of control | dose: 400.0 mg/kg/injection, schedule: Q01DX001 (ip), vehicle: carboxymethylcellulose (CMC) 110 % of control

COc1ccc([N+](=O)[O-])cn1
inactive: dose: 100.0 mg/kg/injection, schedule: Q04DX003 (ip), vehicle: saline with Tween-80 98 % of control | dose: 200.0 mg/kg/injection, schedule: Q04DX003 (ip), vehicle: saline with Tween-80 91 % of control | dose: 400.0 mg/kg/injection, schedule: Q04DX003 (ip), vehicle: saline with Tween-80 88 % of control

CCOc1cc(/C=N/NC(=O)c2ccccc2NC(=O)c2ccccc2)ccc1OC
inactive: [6] 92 % of control | [8] 92 % of control | [9] 101 % of control

O=C(Nc1ccc([N+](=O)[O-])cc1Cl)Sc1ccccc1O
inactive: [1] 104 % of control | dose: 200.0 mg/kg/injection, schedule: Q01DX009 (ip), vehicle: saline with Tween-80 104 % of control | dose: 400.0 mg/kg/injection, schedule: Q01DX009 (ip), vehicle: saline with Tween-80 86 % of control

OC(OC/C(I)=C(/I)COC(O)C(Cl)(Cl)Cl)C(Cl)(Cl)Cl (stereo not given)
inactive: dose: 100.0 mg/kg/injection, schedule: Q01DX009 (ip), vehicle: other 103 % of control | dose: 100.0 mg/kg/injection, schedule: Q04DX003 (ip), vehicle: other 103 % of control | dose: 200.0 mg/kg/injection, schedule: Q01DX009 (ip), vehicle: other 92 % of control | dose: 200.0 mg/kg/injection, schedule: Q04DX003 (ip), vehicle: other 100 % of control | dose: 400.0 mg/kg/injection, schedule: Q04DX003 (ip), vehicle: other 97 % of control

C(=P(c1ccccc1)(c1ccccc1)c1ccccc1)[P+](c1ccccc1)(c1ccccc1)c1ccccc1.[Cl][Fe]([Cl])([Cl])[Br]
inactive: dose: 0.39 mg/kg/injection, schedule: Q01DX009 (ip), vehicle: Klucel (hydroxypropylcellulose) (HPC) 119 % of control | dose: 0.78 mg/kg/injection, schedule: Q01DX009 (ip), vehicle: Klucel (hydroxypropylcellulose) (HPC) 112 % of control | dose: 1.56 mg/kg/injection, schedule: Q01DX009 (ip), vehicle: Klucel (hydroxypropylcellulose) (HPC) 97 % of control and 102 % of control

C[N+](C)(C)c1ncnc2c1ncn2C1CCCO1 (stereo not given)
inactive: dose: 50.0 mg/kg/injection, schedule: Q01DX Z (ip), vehicle: methylcellulose (MC) 92 % of control | dose: 100.0 mg/kg/injection, schedule: Q01DX Z (ip), vehicle: methylcellulose (MC) 94 % of control

COC(=O)CCC#N
inactive: dose: 100.0 mg/kg/injection, schedule: Q01DX009 (ip), vehicle: saline 101 % of control | dose: 200.0 mg/kg/injection, schedule: Q01DX009 (ip), vehicle: saline 91 % of control | dose: 400.0 mg/kg/injection, schedule: Q01DX009 (ip), vehicle: saline 102 % of control

NC(CCl)=NCC1CCCCCC1
inactive: dose: 25.0 mg/kg/injection, schedule: Q04DX002 (ip), vehicle: Klucel (hydroxypropylcellulose) (HPC) 107 % of control | dose: 50.0 mg/kg/injection, schedule: Q04DX002 (ip), vehicle: Klucel (hydroxypropylcellulose) (HPC) 100 % of control | [7] 101 % of control

O=C(/C=C(/NC1CCCCC1)c1ccccc1)c1ccccc1
inactive: [10] 98 % of control | [11] 102 % of control | dose: 400.0 mg/kg/injection, schedule: Q04DX003 (ip), vehicle: Klucel (hydroxypropylcellulose) (HPC) 100 % of control
